Assay results as given in patent publication US20260184687A1, “DIHYDROINDENE DERIVATIVES AS MALT1 INHIBITORS” (C4X Discovery Limited, priority 2022, published 2026).
Where a name gives a salt, the structure may show the parent alone. Read-outs that look alike come from different tables or passages of the source.

Key:
[1] = test system: IL-2 release from stimulated Jurkat cells; experiment: Human IL-2 Release Phenotypic Assay (Assay 3); type: cell-based; conditions: Jurkat cells (clone E6-1), 200 ng/mL PMA + 300 ng/mL ionomycin, IL-2 by ELISA
Outline: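 IC50 values were fitted by 4-parameter non-linear regression to IL-2 release from Jurkat E6-1 cells. Those cells were stimulated for 48 h with PMA (200 ng/mL) plus ionomycin (300 ng/mL) after a 30-min compound pre-incubation at half-log doses in 0.5% DMSO. Cells had been plated at 50 000/well overnight at 37° C.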

[2] = target: T1, MALT1-GS-Ub (6-His-hMALT-1 residues 339-715 fused to ubiquitin) (Homo sapiens, UniProt Q9UDY8);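 further: in vitro MALT1 protease assay: enzyme preincubated with compound 30 min at room temperature, then cleavage of fluorogenic Ac-LVSR-AMC substrate (100 µM) followed by fluorescence every 15 min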
Description: (§1) MALT1 protease activity was assessed in vitro by measuring the cleavage of a fluorogenic tetrapeptide substrate.
(§2) A protein (MALT1-GS-Ub) comprising 6-His-hMALT-1 (residues 339-715), fused to ubiquitin with an 8×GGS linker, was expressed in E. coli, and purified using chitin resin to remove contaminants followed by affinity chromatography purification and size-exclusion chromatography, according to standard protocols.
(§3) Briefly, MALT1-GS-Ub (300-600 nM) was incubated with substrate (Ac-LVSR-AMC, 100 μM) in reaction buffer comprising 50 mM HEPES (pH7.0), 25 mM KCl, 0.1% (v/v) CHAPS and 1 mM TCEP.
(§4) Test compounds dissolved in DMSO were dispensed into assay plates (384-well, black, shallow ProxiPlates). 7 μl enzyme solution was added and incubated at room temperature for 30 minutes to allow compound binding to occur. 2 μl substrate solution was then added and the fluorescence (excitation 360 nm, emission 460 nm) read every 15 minutes using a suitable plate reader. Final assay DMSO concentration was 1%. […] IC50 values were calculated using GraphPad Prism using a 4-parameter non-linear regression curve fit.

FL hMALT1 enzyme [3] = target: T2, FL hMALT1 enzyme (Homo sapiens, UniProt Q9UDY8); experiment: biochemical;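 further: Cell-free protease assay: enzyme preincubated with compound 30 min at room temperature, then cleavage of fluorogenic Ac-LVSR-AMC substrate (100 µM) tracked by fluorescence (ex 360/em 460 nm)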
T2 sequence (Q9UDY8 1-824): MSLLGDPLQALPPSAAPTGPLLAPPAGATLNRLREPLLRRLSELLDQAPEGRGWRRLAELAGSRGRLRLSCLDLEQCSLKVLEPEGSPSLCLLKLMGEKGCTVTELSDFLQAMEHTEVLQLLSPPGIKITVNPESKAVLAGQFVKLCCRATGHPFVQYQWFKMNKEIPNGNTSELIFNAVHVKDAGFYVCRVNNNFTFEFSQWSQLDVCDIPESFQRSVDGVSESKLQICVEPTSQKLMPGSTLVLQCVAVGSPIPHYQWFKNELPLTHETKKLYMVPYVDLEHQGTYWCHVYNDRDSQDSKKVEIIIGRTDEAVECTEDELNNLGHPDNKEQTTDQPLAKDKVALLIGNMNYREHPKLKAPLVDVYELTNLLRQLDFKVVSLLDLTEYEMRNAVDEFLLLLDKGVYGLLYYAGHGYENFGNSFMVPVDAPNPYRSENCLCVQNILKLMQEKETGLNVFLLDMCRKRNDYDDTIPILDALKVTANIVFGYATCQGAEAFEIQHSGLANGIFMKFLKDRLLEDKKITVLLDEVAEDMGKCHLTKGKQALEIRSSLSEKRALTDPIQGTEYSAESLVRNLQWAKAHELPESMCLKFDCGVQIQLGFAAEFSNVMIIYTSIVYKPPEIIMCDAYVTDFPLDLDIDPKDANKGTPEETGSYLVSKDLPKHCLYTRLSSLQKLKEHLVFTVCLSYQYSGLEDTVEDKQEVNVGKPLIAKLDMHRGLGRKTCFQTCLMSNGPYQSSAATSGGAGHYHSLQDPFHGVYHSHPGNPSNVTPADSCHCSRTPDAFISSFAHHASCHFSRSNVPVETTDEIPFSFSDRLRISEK

FL hMALT1 enzyme [4] = target: T2, FL hMALT1 enzyme
[5] = target: T1, MALT1-GS-Ub (6-His-hMALT-1 residues 339-715 fused to ubiquitin); experiment: biochemical
Description: as §1, §2, §3, §4

T1 sequence (Q9UDY8 with tags, fused parts or gaps limits assumed): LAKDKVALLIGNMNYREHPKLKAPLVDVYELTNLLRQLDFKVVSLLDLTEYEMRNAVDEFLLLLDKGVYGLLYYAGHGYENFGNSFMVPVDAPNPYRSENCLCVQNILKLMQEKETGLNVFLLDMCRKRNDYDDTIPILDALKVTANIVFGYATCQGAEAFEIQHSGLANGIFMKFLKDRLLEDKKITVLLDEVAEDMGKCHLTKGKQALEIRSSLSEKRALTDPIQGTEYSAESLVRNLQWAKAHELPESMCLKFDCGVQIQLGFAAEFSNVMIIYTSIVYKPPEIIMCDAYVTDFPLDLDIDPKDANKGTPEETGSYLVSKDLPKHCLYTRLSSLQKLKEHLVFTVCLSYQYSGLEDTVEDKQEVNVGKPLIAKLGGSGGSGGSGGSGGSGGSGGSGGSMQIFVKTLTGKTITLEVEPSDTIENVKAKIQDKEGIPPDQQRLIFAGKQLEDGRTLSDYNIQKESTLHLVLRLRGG

With `CN(C(=O)C1CCS(=O)(=O)CC1)[C@@H](c1ccc(NC2Cc3ccccc3C2(C)C)cc1)C(F)(F)F` (single isomer, unassigned) [Example 2] the IC50 ([1]; 48 hours) was 0.62 µM, the IC50 [2] was 0.14 µM and the IC50 (FL hMALT1 enzyme [3]) was 0.05 µM.

Molecule `CN(C(=O)c1cnco1)[C@@H](c1ccc(NC2Cc3ccccc3C2(C)C)cc1)C(F)(F)F` (single isomer, unassigned) [Example 4] has an IC50 ([1]; 48 hours) of 0.069 µM, an IC50 [2] of 0.14 µM and an IC50 (FL hMALT1 enzyme [3]) of 0.034 µM.

`CC(=O)NCCC(=O)N(C)[C@@H](c1ccc(NC2Cc3ccccc3C2(C)C)cc1)C(F)(F)F` (single isomer, unassigned) [Example 25] showed an IC50 ([1]; 48 hours) of 0.061 µM, an IC50 [2] of 0.16 µM and an IC50 (FL hMALT1 enzyme [3]) of 0.027 µM.

In the case of `CN(C(=O)C1CCS(=O)(=O)CC1)[C@@H](c1ccc(NC2Cc3ccccc3C2(C)C)nc1)C(F)(F)F` (single isomer, unassigned) [Example 37], the IC50 ([1]; 48 hours) is reported as 0.5 µM, the IC50 (FL hMALT1 enzyme [4]) is reported as 0.039 µM and the IC50 [5] is reported as 0.27 µM.

For `CN(C(=O)C1CCS(=O)(=O)CC1)[C@@H](c1ccc(NC2Cc3ccc(Cl)cc3C2(C)C)cc1)C(F)(F)F` (single isomer, unassigned) [Example 150], the IC50 ([1]; Homo sapiens, Jurkat, 48 h) was 0.1 µM, the IC50 [5] was 0.15 µM and the IC50 (FL hMALT1 enzyme [3]) was 0.066 µM.

With `CN(C(=O)C1CCS(=O)(=O)CC1)[C@@H](c1ccc(NC2Cc3ccc(Cl)cc3C2(C)C)cc1)C(F)(F)F` (single isomer, unassigned) [Example 151] the IC50 ([1]; 48 hours) was 0.097 µM, the IC50 [5] was 0.12 µM and the IC50 (FL hMALT1 enzyme [3]) was 0.004 µM.

In the case of `CN(C(=O)C1CCS(=O)(=O)CC1)[C@@H](c1ccc(NC2Cc3cc(Cl)ccc3C2(C)C)cc1)C(F)(F)F` (single isomer, unassigned) [Example 152], the IC50 ([1]; 48 hours) is reported as 0.36 µM, the IC50 [5] is reported as 0.26 µM and the IC50 (FL hMALT1 enzyme [3]) is reported as 0.42 µM.

Molecule `CN(C(=O)C1CCS(=O)(=O)CC1)[C@@H](c1ccc(NC2Cc3cc(Cl)ccc3C2(C)C)cc1)C(F)(F)F` (single isomer, unassigned) [Example 153] has an IC50 ([1]; 48 hours) of 0.12 µM, an IC50 [5] of 0.19 µM and an IC50 (FL hMALT1 enzyme [3]) of 0.067 µM.

Molecule `CC1c2ccccc2CC1Nc1ccc([C@H](N(C)C(=O)C2CCS(=O)(=O)CC2)C(F)(F)F)cc1` (stereo in doubt) [Example 9, N-Methyl-N—((S)-2,2,2-trifluoro-1-(4-(((1,2-trans)-1-methyl-2,3-dihydro-1H-inden-2-yl)amino)phenyl)ethyl)tetrahydro-2H-thiopyran-4-carboxamide 1,1-dioxide] has an IC50 ([1]; 48 hours) of 0.21 µM, an IC50 [2] of 0.24 µM and an IC50 (FL hMALT1 enzyme [4]) of 0.006 µM.

Work on `COC1c2ccccc2CC1Nc1ccc([C@H](N(C)C(=O)C2CCS(=O)(=O)CC2)C(F)(F)F)cc1` (stereo in doubt) [Example 11, N-Methyl-N—((S)-2,2,2-trifluoro-1-(4-(((1,2-trans)-1-methoxy-2,3-dihydro-1H-inden-2-yl)amino)phenyl)ethyl)tetrahydro-2H-thiopyran-4-carboxamide 1,1-dioxide] yielded an IC50 ([1]; 48 hours) greater than 10 µM, an IC50 [2] of 3.89 µM and an IC50 (FL hMALT1 enzyme [4]) of 1.2 µM.

`CC1c2ccccc2C(C)C1Nc1ccc([C@H](N(C)C(=O)C2CCS(=O)(=O)CC2)C(F)(F)F)cc1` (stereo partly drawn) [Example 38, N-((1S)-1-(4-((1,3-Dimethyl-2,3-dihydro-1H-inden-2-yl)amino)phenyl)-2,2,2-trifluoroethyl)-N-methyltetrahydro-2H-thiopyran-4-carboxamide 1,1-dioxide] was tested, and the IC50 ([1]; Homo sapiens, Jurkat, 48 h) was 0.56 µM, the IC50 [5] was 0.21 µM and the IC50 (FL hMALT1 enzyme [3]) was 0.016 µM.

With `CN(C(=O)OC1CNC1)[C@@H](c1ccc(NC2Cc3ccccc3C2(C)C)cc1)C(F)(F)F` (stereo partly drawn) [Example 60, Azetidin-3-yl ((1S)-1-(4-((1,1-dimethyl-2,3-dihydro-1H-inden-2-ylamino)phenyl)-2,2,2-trifluoroethyl)(methyl)carbamate Hydrochloride] the IC50 ([1]; Homo sapiens, Jurkat, 48 h) was 1.1 µM, the IC50 [5] was 0.21 µM and the IC50 (FL hMALT1 enzyme [3]) was 0.053 µM.

Work on `CN(C(=O)C1CNC1)[C@@H](c1ccc(NC2Cc3ccccc3C2(C)C)cc1)C(F)(F)F` (stereo partly drawn) [Example 72, N-((1S)-1-(4-((1,1-Dimethyl-2,3-dihydro-1H-inden-2-yl)amino)phenyl)-2,2,2-trifluoroethyl)-N-methylazetidine-3-carboxamide Hydrochloride] yielded an IC50 ([1]; Homo sapiens, Jurkat, 48 h) of 0.52 µM, an IC50 [5] of 0.27 µM and an IC50 (FL hMALT1 enzyme [3]) of 0.22 µM.

`CC(=O)NC12CC(C(=O)N(C)[C@@H](c3ccc(N[C@H]4Cc5ccccc5C4(C)C)cn3)C(F)(F)F)(C1)C2` [Example 179, 3-Acetamido-N—((S)-1-(5-(((S)-1,1-dimethyl-2,3-dihydro-1H-inden-2-yl)amino)pyridin-2-yl)-2,2,2-trifluoroethyl)-N-methylbicyclo[1.1.1]pentane-1-carboxamide] was tested, and the IC50 ([1]; Homo sapiens, Jurkat, 48 h) was 0.47 µM and the IC50 (FL hMALT1 enzyme [4]) was 0.088 µM.
